In patent publication US20160201132A1, “GENE EXPRESSION BIOMARKERS OF LAQUINIMOD RESPONSIVENESS” (Teva Pharmaceutical Industries Ltd., priority 2013, published 2016):

Test system: PBMC of RRMS patients
Assay: Gene expression microarray analysis (HG-U133A-2) of PBMC from RRMS patients treated with LAQ, ancillary study to ALLEGRO
Assay type: in vivo, human
Description: The goal of this ancillary study was to characterize gene expression changes and corresponding biological mechanisms induced in PBMC of RRMS patients by LAQ treatment. According to ALLEGRO clinical trial inclusion criteria, 25 patients were randomly assigned to receive LAQ (n=13, age 38.8±2.3 years, female/male ratio: 8/5) or placebo (n=12, age 37.2±3.4 years, female/male ratio: 8/4).
Peripheral blood samples were obtained from RRMS patients at baseline before start of LAQ treatment or placebo, after 0, 1, 6 and 24 month of treatment (visit 0, 1, 6 and 7 according to ALLEGRO clinical trial protocol correspondently) for gene microarray analysis.
Briefly, 1) Peripheral blood mononuclear cells (PBMC) were obtained from RRMS patients that participated in ALLEGRO and were treated daily with 0.6 mg LAQ or placebo. PBMC were subjected for gene expression analysis (HU-133A-2-Affymatrix arrays) at baseline and at 1 and 6 months of LAQ treatment; 2) Data was analyzed by Partek Genomics Solution software. Most informative genes (MIGs) were defined as those that differentiated between groups with p<0.01. Gene functional annotation, enrichment and pathway analysis were performed by Ingenuity software. For each time point, genes that changed in placebo group were excluded from further analysis; and 3) Verification of LAQ related mechanism was performed by Western blot.
PBMC were extracted from 15 ml peripheral blood, separated by Ficoll-Hypaque gradient. Total RNA was extracted using both Trizol (Invitrogen, USA) and Phase-Lock-Gel columns (Eppendorf, Germany) including a DNase digestion step. RNA integrity was assessed by RNA Experion automated electrophoresis system (Bio-Rad Laboratories, Hercules, Calif.).
Probe synthesis using 3 μg total RNA, hybridization, detection, and scanning was performed according to the standard Affymetrix, Inc. USA protocols; cDNA was synthesized using the Two-Cycle cDNA Synthesis Kit (Affymetrix, Inc., USA), and in-vitro transcription performed with the GeneChip IVT Labeling Kit (Affymetrix, Inc., USA). The biotin-labeled IVT-RNA was hybridized to HG-U133A-2 arrays containing 18,400 gene transcripts, each corresponding to 14,500 well-annotated human genes, washed in a GeneChip Fluidics Station 450 (Hewlett Packard, USA, GeneArray-™ scanner G2500A) and scanned according to the manufacturer's protocol (Affymetrix, Inc., USA).
Data analysis was performed on Partek Genomics Solution software (www.partek.com; Partek Incorporated, St. Louis, Mo.). Expression values were computed from raw CEL files by applying the Robust Multi-Chip Average (RMA) background correction algorithm. RMA correction included: 1) values background correction; 2) quintile normalization; 3) log 2 transformation; and 4) median polish summarization. The ANOVA, Repeated Measures and correlation analysis implicated in Partek software ware applied to evaluate LAQ effects. Most informative genes MIGs were defined as those that differentiated between experimental groups with p<0.01. All p-values were calculated for False Discovery Rate (FDR) multiple test correction at p=0.05.
Additionally, significance of individual genes was tested by parametric T-test and non parametric Mann-Whitney test using Bootstrapping approach based on repeated permutations of the data with 5% FDR for multiple testing.
Gene functional annotation, enrichment, and pathway analyses to identify the leading biological pathways that operated under LAQ treatment were performed by Ingenuity Pathways Analysis software (www.ingenuity.com).
ANOVA analysis was used to compare PBMC gene expression after 1, 6 or 24 month of LAQ treatment with baseline gene expression.
For each time point inventors performed analysis source of variation in dataset. (FIG. 1). Age, gender and batch effects were considered as confounders regarding LAQ or Placebo related changes. For each time point genes associated with Placebo effect were evaluated and excluded from further analysis. […]

[1] = after six months of LAQ treatment
[2] = combined 6 and 24 months vs baseline

Compound: CCN(C(=O)c1c(O)c2c(Cl)cccc2n(C)c1=O)c1ccccc1 [LAQ, 5-chloro-N-ethyl-4-hydroxy-1-methyl-2-oxo-N-phenyl-1,2-dihydroquinoline-3-carboxamide]
- p, down regulation of pro-inflammatory cytokines IL-9/11/12/20/36, TNFRSF11A/B, IFNA4/8/10/17 and receptors for IL-5/13/20/22 [1]: 3*10^−3 to 9*10^−3
- p, down-regulation of MMP16/24/26/28 and ADAM12/18/22 [1]: 4.95*10^−4 to 1.26*10^−3
- p, suppression of CCL19 and chemokine receptor CXCR1/2 [1]: 6.79*10^−3
- genes (#), Adhesion of cells (after six months of treatment): 119
- genes (#), Caveolar mediated endocytosis (after six months of treatment): 13
- genes (#), Cell signaling: Neurotransmission (after six months of treatment): 56
- genes (#), Cellular movement: Invasion of cells (after six months of treatment): 120
- genes (#), Development: Arachidonic Acid metabolism (after six months of treatment): 18
- genes (#), Development: G protein Coupled Receptor Signaling (after six months of treatment): 73
- genes (#), Hematological system: Coagulation system (after six months of treatment): 7
- genes (#), Hematological system: Intrinsic prothrombin activation pathway (after six months of treatment): 6
- genes (#), Inflammatory response: IL-12 signaling (after six months of treatment): 11
- genes (#), TGFB signaling (after six months of treatment): 14
- genes (#), Leukocyte Extravasation Signaling (after six months of treatment, cellular movement function): 31
- genes (#), Leukocyte Extravasation Signaling (after six months of treatment, inflammatory response function): 29
- # of genes p < 0.01 (LAQ related MIGs, ANOVA) [2]: 2922
- Down regulated genes (LAQ related MIGs) [2]: 2911
- Up-regulated genes (LAQ related MIGs) [2]: 11
- Fold-Change (4.0 vs. 0.0) (gene AAK1): −1.184
- Fold-Change (4.0 vs. 0.0) (gene ACSM5): −1.184
- Fold-Change (4.0 vs. 0.0) (gene ACTA1): −1.184
- Fold-Change (4.0 vs. 0.0) (gene AIF1): −1.179
- Fold-Change (4.0 vs. 0.0) (gene AKAP9): −1.183
- Fold-Change (4.0 vs. 0.0) (gene ALX4, after six months of LAQ): −1.285
- Fold-Change (4.0 vs. 0.0) (gene ASCL1): −1.178
- Fold-Change (4.0 vs. 0.0) (gene ATN1): −1.181
- Fold-Change (4.0 vs. 0.0) (gene BCAN): −1.178
- Fold-Change (4.0 vs. 0.0) (gene BCAP29): −1.18
- Fold-Change (4.0 vs. 0.0) (gene C10orf81): −1.183
- Fold-Change (4.0 vs. 0.0) (gene CA10): −1.181
- Fold-Change (4.0 vs. 0.0) (gene CBS): −1.179
- Fold-Change (4.0 vs. 0.0) (gene CLCN7): −1.177
- Fold-Change (4.0 vs. 0.0) (gene CLEC4M): −1.184
- Fold-Change (4.0 vs. 0.0) (gene CLN8): −1.182
- Fold-Change (4.0 vs. 0.0) (gene CNOT4): −1.181
- Fold-Change (4.0 vs. 0.0) (gene CYP2B6 /// CYP2B7P1, after six months of LAQ): −1.2873
- Fold-Change (4.0 vs. 0.0) (gene CYR61): −1.181
- Fold-Change (4.0 vs. 0.0) (gene DCBLD2): −1.18
- Fold-Change (4.0 vs. 0.0) (gene DDN): −1.178
- Fold-Change (4.0 vs. 0.0) (gene DHX34): −1.184
- Fold-Change (4.0 vs. 0.0) (gene DNAH3): −1.184
- Fold-Change (4.0 vs. 0.0) (gene DPYSL4): −1.18
- Fold-Change (4.0 vs. 0.0) (gene DUOX2): −1.178
- Fold-Change (4.0 vs. 0.0) (gene ESPL1, after six months of LAQ): −1.284
- Fold-Change (4.0 vs. 0.0) (gene EXO1): −1.179
- Fold-Change (4.0 vs. 0.0) (gene FAM188A): −1.178
- Fold-Change (4.0 vs. 0.0) (gene FAM189A1): −1.183
- Fold-Change (4.0 vs. 0.0) (gene GIPR): −1.1819
- Fold-Change (4.0 vs. 0.0) (gene GPR12): −1.178
- Fold-Change (4.0 vs. 0.0) (gene GPRIN2): −1.179
- Fold-Change (4.0 vs. 0.0) (gene GRK5, after six months of LAQ): −1.289
- Fold-Change (4.0 vs. 0.0) (gene GRM1): −1.181
- Fold-Change (4.0 vs. 0.0) (gene GRM8): −1.182
- Fold-Change (4.0 vs. 0.0) (gene HHLA1): −1.181
- Fold-Change (4.0 vs. 0.0) (gene HOXC11): −1.181
- Fold-Change (4.0 vs. 0.0) (gene HS3ST3B1): −1.178
- Fold-Change (4.0 vs. 0.0) (gene ICMT): −1.183
- Fold-Change (4.0 vs. 0.0) (gene IFNA17): −1.18
- Fold-Change (4.0 vs. 0.0) (gene IGHG1): −1.183
- Fold-Change (4.0 vs. 0.0) (gene IHH): −1.179
- Fold-Change (4.0 vs. 0.0) (gene ITGB4): −1.181
